Measurements taken from paper PMC7139549, “TLD1433 Photosensitizer Inhibits Conjunctival Melanoma Cells in Zebrafish Ectopic and Orthotopic Tumour Models” (Cancers, 2020).
Like-named read-outs stand apart in the source and are kept apart here.

Tested on: CM2005.1 conjunctival melanoma cell line
Assay: SRB cell viability assay, CM2005.1
Assay type: cell-based, Human
Procedure: TLD1433 is known to generate reactive oxygen species (ROS) with high quantum efficacy in many cancer cell lines. However, there is no report of the in vitro toxicity of this compound in eye melanoma (UM) cell lines. We determined the cell viability of three conjunctival melanoma cell lines (CRMM1, CRMM2 and CM2005.1), and three uveal melanoma cell lines (OMM1, OMM2.5, MEL270) in the presence of TLD1433, both in the dark or under green light irradiation (21 mW/cm^2, 19 J/cm^2, 520 nm, 15 min), and compared this viability to epidermoid carcinoma A431 and cutaneous melanoma A375 cell lines under the same conditions. The protocol used was based on previous work from the Bonnet group, and differed slightly from recommendations from McFarland et al.. […] The effective concentration (EC50) values, i.e., the concentration required to reduce cell viability by 50% compared to untreated wells, were assessed by fitting the dose-response curves with a Hill equation. The phototoxicity index (PI), defined as the ratio of the dark EC50 to the light EC50, was also calculated and represents the amplification of TLD1433 activity with a light trigger. […]
Figure 2 Cell viability after TLD1433 treatment of eight tumour cell lines (CRMM1, CRMM2, CM2005.1, OMM1, OMM2.5, MEL270, A431, A375). […] The absorbance of Sulforhodamine B in solution was measured at 520 nm. […]
At day 0, cells were detached using 1mL of trypsin, resuspended in 4 mL of media and transferred to a 15 mL corning falcon tube. Cells were counted using trypan blue and BioRad® TC20™ automated cell counter (Figure 11). Dilutions of 6000 (CRMM1), 6000 (CRMM2), 8000 (CM2005.1), 6000 (OMM1), 6000 (OMM2.5), 6000 (MEL270) 8000 (A431), and 4000 (A375) cells/well were calculated from each cell suspension at a final volume of 6 mL using the following formula: Vc=(Vt×10C)/Lc where Vt = total volume of solution, C = number of cells per well/per 100 μL and Lc = live cells count (cells/mL). […] Next day, the dye was dissolved using Tri-base (0.25%) and absorbance of SRB at 510 nm was recorded from each well using a Tecan plate reader. […]

## Cc1ccnc(-c2cc(C)ccn2)c1.Cc1ccnc(-c2cc(C)ccn2)c1.[Cl-].[Cl-].[Ru+2].c1csc(-c2ccc(-c3ccc(-c4nc5c6cccnc6c6ncccc6c5[nH]4)s3)s2)c1 [TLD1433]
CM2005.1, dark, 24 h treatment, SRB, read-out: EC50, dark
  EC50: 1100 nM
CM2005.1, green light 520 nm, 15 min, 21 mW/cm^2, 19 J.cm^−2, DLI 24 h, read-out: EC50,light
  EC50: 5.8 nM
CM2005.1, ratio of dark and light EC50, 19 J.cm^−2 green light
  PI (photo index): 190
